Several values for one entry are separate records, joined by “and”; a condition that tells them apart may be missing. Equal entries are not always repeated. Where two headings read alike, the source gives them in different places. Peptide text beside a SMILES is read from it. * marks the point of attachment. βNA = c1ccc2cc(N*)ccc2c1
Key:
E. coli AG100 = assay: Checkerboard synergy assay (MIC of antibiotics/EtBr with efflux inhibitor); format: cell-based, Escherichia coli; settings: Escherichia coli
Method: The assays were performed in triplicate and the MIC value was given as result of at least two concordant values.

[1] = tested on: E. coli AG100A (AcrAB pump-deficient); assay: MIC, broth microdilution; format: cell-based, Escherichia coli; settings: Escherichia coli
E. coli AG100tet = assay: EtBr efflux by real-time fluorometry; settings: 80 µM

NC(N)=NCCC[C@H](NC(=O)[C@@H](N)Cc1ccccc1)C(=O)Nc1ccc2ccccc2c1 [PAβN] (H-Phe-Arg-βNA)
MIC (E. coli AG100; AG100, AG100, inhibitor 40 μM, read-out: MIC of OXA in presence of the efflux inhibitor): 64 µg/mL
MIC (E. coli AG100; AG100, AG100, inhibitor 80 μM, read-out: MIC of OXA in presence of the efflux inhibitor): 64 µg/mL
MIC (E. coli AG100; AG100, AG100, inhibitor 160 μM, read-out: MIC of OXA in presence of the efflux inhibitor): 64 µg/mL
MIC (E. coli AG100; AG100, read-out: MIC of EtBr in presence of the efflux inhibitor, AG100, inhibitor 40 μM): 100 µg/mL
MIC (E. coli AG100; AG100, read-out: MIC of EtBr in presence of the efflux inhibitor, AG100, inhibitor 80 μM): 100 µg/mL
MIC (E. coli AG100; AG100, read-out: MIC of EtBr in presence of the efflux inhibitor, AG100, inhibitor 160 μM): 100 µg/mL
MIC (E. coli AG100; AG100, read-out: MIC of OFX in presence of the efflux inhibitor, AG100, inhibitor 40 μM): 0.06 µg/mL
MIC (E. coli AG100; AG100, read-out: MIC of OFX in presence of the efflux inhibitor, AG100, inhibitor 80 μM): 0.06 µg/mL
MIC (E. coli AG100; AG100, read-out: MIC of OFX in presence of the efflux inhibitor, AG100, inhibitor 160 μM): 0.06 µg/mL
MIC (E. coli AG100; AG100, read-out: MIC of TET in presence of the efflux inhibitor, AG100, inhibitor 40 μM): 2 µg/mL
MIC (E. coli AG100; AG100, read-out: MIC of TET in presence of the efflux inhibitor, AG100, inhibitor 80 μM): 1 µg/mL
MIC (E. coli AG100; AG100, read-out: MIC of TET in presence of the efflux inhibitor, AG100, inhibitor 160 μM): 0.06 µg/mL
MIC [1]: 50 µg/mL and 96.3 µM
Fluorescence raw data, Channel Cycling A.530/585hp (E. coli AG100tet; cycle 1, + glucose): 2.731
Fluorescence raw data, Channel Cycling A.530/585hp (E. coli AG100tet; cycle 1, without glucose): 3.207
Fluorescence raw data, Channel Cycling A.530/585hp (E. coli AG100tet; cycle 2, + glucose): 2.53
Fluorescence raw data, Channel Cycling A.530/585hp (E. coli AG100tet; cycle 2, without glucose): 3.035
Fluorescence raw data, Channel Cycling A.530/585hp (E. coli AG100tet; cycle 3, + glucose): 2.342
Fluorescence raw data, Channel Cycling A.530/585hp (E. coli AG100tet; cycle 3, without glucose): 2.872
Fluorescence raw data, Channel Cycling A.530/585hp (E. coli AG100tet; cycle 4, without glucose): 2.787
Fluorescence raw data, Channel Cycling A.530/585hp (E. coli AG100tet; cycle 5, without glucose): 2.697
Fluorescence raw data, Channel Cycling A.530/585hp (E. coli AG100tet; cycle 6, without glucose): 2.616
Fluorescence raw data, Channel Cycling A.530/585hp (E. coli AG100tet; cycle 7, without glucose): 2.625
Fluorescence raw data, Channel Cycling A.530/585hp (E. coli AG100tet; cycle 8, without glucose): 2.608
Fluorescence raw data, Channel Cycling A.530/585hp (E. coli AG100tet; cycle 9, + glucose): 1.745
Fluorescence raw data, Channel Cycling A.530/585hp (E. coli AG100tet; cycle 9, without glucose): 2.567
Fluorescence raw data, Channel Cycling A.530/585hp (E. coli AG100tet; cycle 10, + glucose): 1.7497
Fluorescence raw data, Channel Cycling A.530/585hp (E. coli AG100tet; cycle 10, without glucose): 2.517
Fluorescence raw data, Channel Cycling A.530/585hp (E. coli AG100tet; cycle 11, + glucose): 1.716
Fluorescence raw data, Channel Cycling A.530/585hp (E. coli AG100tet; cycle 11, without glucose): 2.463
Fluorescence raw data, Channel Cycling A.530/585hp (E. coli AG100tet; cycle 12, + glucose): 1.744
Fluorescence raw data, Channel Cycling A.530/585hp (E. coli AG100tet; cycle 12, without glucose): 2.462
Fluorescence raw data, Channel Cycling A.530/585hp (E. coli AG100tet; cycle 13, + glucose): 1.706
Fluorescence raw data, Channel Cycling A.530/585hp (E. coli AG100tet; cycle 13, without glucose): 2.458
Fluorescence raw data, Channel Cycling A.530/585hp (E. coli AG100tet; cycle 14, + glucose): 1.697
Fluorescence raw data, Channel Cycling A.530/585hp (E. coli AG100tet; cycle 14, without glucose): 2.431
Fluorescence raw data, Channel Cycling A.530/585hp (E. coli AG100tet; cycle 15, + glucose): 1.701
Fluorescence raw data, Channel Cycling A.530/585hp (E. coli AG100tet; cycle 15, without glucose): 2.375
Fluorescence raw data, Channel Cycling A.530/585hp (E. coli AG100tet; cycle 16, + glucose): 1.676
Fluorescence raw data, Channel Cycling A.530/585hp (E. coli AG100tet; cycle 16, without glucose): 2.373
Fluorescence raw data, Channel Cycling A.530/585hp (E. coli AG100tet; cycle 17, + glucose): 1.744
Fluorescence raw data, Channel Cycling A.530/585hp (E. coli AG100tet; cycle 17, without glucose): 2.339
Fluorescence raw data, Channel Cycling A.530/585hp (E. coli AG100tet; cycle 18, + glucose): 1.635
Fluorescence raw data, Channel Cycling A.530/585hp (E. coli AG100tet; cycle 18, without glucose): 2.379
Fluorescence raw data, Channel Cycling A.530/585hp (E. coli AG100tet; cycle 19, + glucose): 1.694
Fluorescence raw data, Channel Cycling A.530/585hp (E. coli AG100tet; cycle 19, without glucose): 2.342
Fluorescence raw data, Channel Cycling A.530/585hp (E. coli AG100tet; cycle 20, + glucose): 1.701
Fluorescence raw data, Channel Cycling A.530/585hp (E. coli AG100tet; cycle 20, without glucose): 2.323
Fluorescence raw data, Channel Cycling A.530/585hp (E. coli AG100tet; cycle 21, + glucose): 1.621
Fluorescence raw data, Channel Cycling A.530/585hp (E. coli AG100tet; cycle 21, without glucose): 2.26
Fluorescence raw data, Channel Cycling A.530/585hp (E. coli AG100tet; cycle 22, + glucose): 1.645
Fluorescence raw data, Channel Cycling A.530/585hp (E. coli AG100tet; cycle 22, without glucose): 2.252
Fluorescence raw data, Channel Cycling A.530/585hp (E. coli AG100tet; cycle 23, + glucose): 1.597
Fluorescence raw data, Channel Cycling A.530/585hp (E. coli AG100tet; cycle 23, without glucose): 2.314
Fluorescence raw data, Channel Cycling A.530/585hp (E. coli AG100tet; cycle 24, + glucose): 1.6798
Fluorescence raw data, Channel Cycling A.530/585hp (E. coli AG100tet; cycle 24, without glucose): 2.2447
Fluorescence raw data, Channel Cycling A.530/585hp (E. coli AG100tet; cycle 25, + glucose): 1.636
Fluorescence raw data, Channel Cycling A.530/585hp (E. coli AG100tet; cycle 25, without glucose): 2.272
Fluorescence raw data, Channel Cycling A.530/585hp (E. coli AG100tet; cycle 26, + glucose): 1.633
Fluorescence raw data, Channel Cycling A.530/585hp (E. coli AG100tet; cycle 26, without glucose): 2.288
Fluorescence raw data, Channel Cycling A.530/585hp (E. coli AG100tet; cycle 27, + glucose): 1.617
Fluorescence raw data, Channel Cycling A.530/585hp (E. coli AG100tet; cycle 27, without glucose): 2.2961
Fluorescence raw data, Channel Cycling A.530/585hp (E. coli AG100tet; cycle 28, + glucose): 1.668
Fluorescence raw data, Channel Cycling A.530/585hp (E. coli AG100tet; cycle 28, without glucose): 2.2127
Fluorescence raw data, Channel Cycling A.530/585hp (E. coli AG100tet; cycle 29, + glucose): 1.644
Fluorescence raw data, Channel Cycling A.530/585hp (E. coli AG100tet; cycle 29, without glucose): 2.236
Fluorescence raw data, Channel Cycling A.530/585hp (E. coli AG100tet; cycle 30, + glucose): 1.668
Fluorescence raw data, Channel Cycling A.530/585hp (E. coli AG100tet; cycle 30, without glucose): 2.282
Fluorescence raw data, Channel Cycling A.530/585hp (E. coli AG100tet; cycle 31, + glucose): 1.6751
Fluorescence raw data, Channel Cycling A.530/585hp (E. coli AG100tet; cycle 31, without glucose): 2.164
Fluorescence raw data, Channel Cycling A.530/585hp (E. coli AG100tet; cycle 32, + glucose): 1.6187

From article PMC5433425 (PeerJ, 2017)
